Read-outs that look alike come from different tables or passages of the source.
Columns and labels:
[1] = molecular target: Cqui\Orco + Cqui\Or10 (Culex quinquefasciatus, UniProt D5LMR7+Q309I4); assay: Inhibition of odorant (3-methylindole) activation of Cqui\Orco + Cqui\Or10 in Xenopus oocytes; format: cell-based; settings: for Inhibition of activation of Cqui\Orco+Cqui\Or10 by 3-methylindole: 100 nM 3-methylindole, OLC compound 100 µM
[2] = Solubility in recording solution (observation); format: physicochemical; settings: aqueous recording solution, higher concentrations (OLC2: above 100 µM)
Protocol: Odorant and Orco ligand induced currents were recorded under two-electrode voltage clamp in Xenopus laevis oocytes expressing ORs, using an automated parallel electrophysiology system (OpusExpress 6000A; Molecular Devices). Oocytes were perfused with ND96 (in mM: 96 NaCl, 2 KCl, 1 CaCl2, 1 MgCl2, 5 HEPES, pH 7.5). Odorant stock solutions (0.5 or 1 M) and Orco ligand stock solutions (100 mM) were prepared in DMSO and diluted in ND96. Unless otherwise noted, applications were for 60 sec at a flow rate of 1.0 ml/min, with extensive washing in ND96 (9 or 20 min at 4.6 ml/min) between applications. Micropipettes were filled with 3 M KCl and had resistances of 0.2−2.0 MΩ. The holding potential was −70 mV. Current responses, filtered (4-pole, Bessel, low pass) at 20 Hz (−3 db) and sampled at 100 Hz, were captured and stored using OpusXpress 1.1 software (Molecular Devices).

[3] = tested on: Onub\Orco + Onub\Or1; assay: Agonist activation of Onub\Orco + Onub\Or1 in Xenopus oocytes, two-electrode voltage clamp; format: cell-based, Ostrinia nubilalis; settings: 100 µM compound; mean ± SEM, n=3-8

Sequence of Cqui\Orco + Cqui\Or10 (D5LMR7 entry or part of it): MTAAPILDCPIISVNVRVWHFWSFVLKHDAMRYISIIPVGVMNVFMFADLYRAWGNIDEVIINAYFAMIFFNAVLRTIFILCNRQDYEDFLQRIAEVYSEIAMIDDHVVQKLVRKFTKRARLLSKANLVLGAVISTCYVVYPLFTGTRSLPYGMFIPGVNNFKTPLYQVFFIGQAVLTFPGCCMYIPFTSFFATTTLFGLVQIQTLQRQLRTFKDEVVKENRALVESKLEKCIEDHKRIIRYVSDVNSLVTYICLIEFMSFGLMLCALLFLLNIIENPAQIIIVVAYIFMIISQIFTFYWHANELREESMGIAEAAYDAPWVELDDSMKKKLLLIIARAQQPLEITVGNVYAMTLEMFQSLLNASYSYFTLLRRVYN
Sequence of Cqui\Orco + Cqui\Or10 (Q309I4 entry or part of it): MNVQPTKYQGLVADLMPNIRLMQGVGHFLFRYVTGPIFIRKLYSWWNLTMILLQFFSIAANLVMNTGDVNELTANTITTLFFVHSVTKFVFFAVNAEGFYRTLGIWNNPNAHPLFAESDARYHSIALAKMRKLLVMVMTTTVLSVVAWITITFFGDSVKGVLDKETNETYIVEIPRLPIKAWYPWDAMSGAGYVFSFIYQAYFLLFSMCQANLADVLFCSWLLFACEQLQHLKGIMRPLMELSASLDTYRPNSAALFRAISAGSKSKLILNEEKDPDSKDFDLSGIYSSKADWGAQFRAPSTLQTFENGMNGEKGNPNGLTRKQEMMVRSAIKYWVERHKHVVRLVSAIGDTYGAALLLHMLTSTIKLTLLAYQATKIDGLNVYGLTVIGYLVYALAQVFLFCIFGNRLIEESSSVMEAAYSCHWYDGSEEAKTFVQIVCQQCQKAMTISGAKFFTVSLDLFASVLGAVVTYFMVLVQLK

Row | Compound | Inhibition of activation of Cqui\Orco+Cqui\Or10 by 3-methylindole [1] | IC50 ([1]; activated by 10 nM 3-methylindole (EC10), read-out: IC50 for inhibition of responses to 10 nM 3-MI) | IC50 ([1]; activated by 100 nM 3-methylindole (EC53), read-out: IC50 for inhibition of responses to 100 nM 3-MI) | Solubility [2] | Response amplitude as percentage of response to 100 µM OLC3, Onub\Orco + Onub\Or1 [3]
1 | CCCCc1ccc(NC(=O)CSc2nnc(-c3ccccn3)n2CC)cc1 [OLC15] | inhibited | 1500 ± 200 nM | 2000 ± 300 nM | – | –
2 | CCc1ccc(NC(=O)CSc2nnc(-c3ccccn3)n2CC)cc1 [OLC2] | inhibited | – | – | poor solubility | 9 ± 2%

Source: PMC3348135, “Identification of New Agonists and Antagonists of the Insect Odorant Receptor Co-Receptor Subunit” (PLoS ONE, 2012)
